Patent US7064120B2, “Tricyclic pyridyl carboxamides and derivatives thereof tocolytic oxytocin receptor antagonists” (Wyeth, priority 2001, dated 2006)

Target: T1, human oxytocin receptor (Homo sapiens, UniProt P30559)
T1 construct: host or cells: CHO cells, stably transfected (pcDNA3.1 vector)
T1 sequence (P30559 1-389): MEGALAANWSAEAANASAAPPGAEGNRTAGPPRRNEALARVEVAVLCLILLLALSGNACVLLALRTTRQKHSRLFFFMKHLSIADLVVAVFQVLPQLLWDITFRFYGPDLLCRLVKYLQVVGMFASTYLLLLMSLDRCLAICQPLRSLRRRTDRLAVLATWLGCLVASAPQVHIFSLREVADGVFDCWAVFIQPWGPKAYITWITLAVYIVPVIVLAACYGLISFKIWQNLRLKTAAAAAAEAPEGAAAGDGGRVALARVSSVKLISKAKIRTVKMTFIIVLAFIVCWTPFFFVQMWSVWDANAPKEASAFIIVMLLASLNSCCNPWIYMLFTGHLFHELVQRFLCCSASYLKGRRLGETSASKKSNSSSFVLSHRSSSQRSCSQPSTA
Test: Oxytocin binding in CHO cell membranes expressing human oxytocin receptors ([3H]oxytocin radioligand binding)
Settings: 100 nM; for inhibition at 0.1 µM: read-out: OT % inhibition @ 100 nM
Protocol: Oxytocin Binding in Chinese Hamster Ovary Cell Membranes Expressing Human Oxytocin Receptors
Cell Culture medium (e.g. 30 mL for 1:30 split) is immediately added and mixed well to inactivate trypsin. 1 mL of detached cells is added to new culture flasks containing fresh Cell Culture medium (e.g. into 25 mL per T-150 flask), and mixed gently. The cells are incubated at 37° C. in 5% CO2. The medium is changed at 3 to 4 days interval (or as appropriate). […] All steps are done under sterile conditions.
The cells are washed twice gently with Hank's Balanced Salt solution (e.g., use 10 mL per T-150 flask). […] The contents are transferred to centrifuge tubes (50 mL size) kept in ice bath. All subsequent steps are done at 4° C. The tubes are centrifuged at 300×g for 15 min (1380 rpm on SORVAL, Model RT6000D, using rotor for 50 mL tubes). The supernatant is discarded and the cells suspended in homogenizing buffer (10 mM Tris-HCl containing 0.25 M sucrose and 1 mM EDTA, pH 7.4) ensuring that the volume of the buffer is about ten times the volume of the cell pellet. The cells are pooled into a centrifuge tube (50 mL) and homogenized with a Polytron at setting 6 for 10 sec. The homogenate is transferred into a Potter-Elvjehm homogenizer and homogenized with 3 strokes. The homogenate is centrifuged at 1500×g for 10 min at 4° C. (3100 rpm using SORVAL, model RT6000D, using a rotor for 50 mL tubes). The pellet is discarded. The supernatant is centrifuged at 100,000×g for 60 min. at 4° C. (Beckman L8-80M ultracentrifuge; spin at 37,500 rpm with rotor type 70 Ti for 50 mL tubes; 38,000 rpm with rotor type 8OTi for 15 mL tubes; or 35,800 rpm with rotor type 45Ti). The supernantant is discarded and the pellet suspended in 3 to 4 mL of Tris buffer (50 mM TRIS-HCl, pH 7.4). The protein content is estimated by the Bradford or Lowry method. The volume of the membrane suspension is adjusted with the membrane buffer (50 mM Tris-HCl containing 0.1% BSA and 0.1 mM PMSF) to give 3.0 mg/mL (or as appropriate) of protein. The membranes are aliquoted and stored at −70° C.
In wells of a 96-well format microtiter plate, is added 90, 110 or 130 μL (to make up a final volume of 200 μL) of assay buffer containing 50 mM of Tris-HCl (pH 7.4), […], 1 mg % aprotinin, 1 mg % leupeptin, 2 mg % 1,10-phenanthroline, 10 mg % trypsin inhibitor, and 0.1 mM PMSF. The inhibitors are added on the day of the experiment. The components are mixed at room temperature, and then kept in ice bath following adjustment of the pH to 7.4. […] For oxytocin and other peptide ligands, 20 μL of 50% DMSO is added and the assay buffer volume is adjusted accordingly. To each well is added 50 μL of frozen membrane suspension thawed immediately prior to use and diluted in assay buffer to the required concentration (equivalent to 25 to 50 μg of protein/well as needed). 20 μL of 8 nM [^3H]oxytocin in the assay buffer, prepared just before use is added and incubated at room temperature for 60 min. shaking the plate on a mechanical shaker for the first 15 min. The incubation is stopped by rapid filtration of the plate contents followed by washing with ice-cold buffer (50 mM Tris-HCl, pH 7.4) using a cell harvester (Tomtek and Printed filtermat-B filter paper). The filter paper is thoroughly dried (7–12 min. in a microwave oven) and impregnated with MeltiLex B/H melt-on scintillation wax sheets and the radioactivity counted in a betaplate scintillation counter.
Binding data is either reported as percent inhibition at a certain concentration or if an IC50 was calculated, as a nanomolar concentration.

| Structure (SMILES) | inhibition at 0.1 µM [%] | OT % inhibition @ 100 nM [%] |
| --- | --- | --- |
| COc1cccc(-c2ccc(C(=O)N3Cc4ccc(C(=O)N(C)CCc5ccncc5)n4Cc4ccccc43)cc2OC)c1 [Example 135, 10-[(2,3′-Dimethoxy-[1,1′-biphenyl]-4-yl)carbonyl]-N-methyl-N-[2-(4-pyridinyl)ethyl]-10,11-dihydro-5H-pyrrolo[2,1-c][1,4]benzodiazepine-3-carboxamide] | 96 |  |
| COc1ccccc1-c1ccc(C(=O)N2Cc3ccc(C(=O)NCCc4ccccn4)n3Cc3ccccc32)cc1OC [Example 58, 10-[(2,2′-Dimethoxy-[1,1′-biphenyl]-4-yl)carbonyl]-N-[2-(2-pyridinyl)ethyl]-10,11-dihydro-5H-pyrrolo[2,1-c][1,4]benzodiazepine-3-carboxamide] | 37 |  |
| COc1cc(C(=O)N2Cc3ccc(C(=O)N(C)CCc4ccncc4)n3Cc3ccccc32)ccc1-c1ccccc1C [Example 131, 10-[(2-Methoxy-2′-methyl-[1,1′-biphenyl]-4-yl)carbonyl]-N-methyl-N-[2-(4-pyridinyl)ethyl]-10,11-dihydro-5H-pyrrolo[2,1-c][1,4]benzodiazepine-3-carboxamide] | 99 |  |
| COc1cccc(-c2cc(OC)c(C(=O)N3Cc4ccc(C(=O)NCc5ccccn5)n4Cc4ccccc43)cc2Cl)c1 [Example 30, 10-[(6-Chloro-3,3′-dimethoxy-[1,1′-biphenyl]-4-yl)carbonyl]-N-(2-pyridinylmethyl)-10,11-dihydro-5H-pyrrolo[2,1-c][1,4]benzodiazepine-3-carboxamide] | 25 |  |
| COc1cc(C(=O)N2Cc3ccc(C(=O)NCCc4ccccn4)n3Cc3ccccc32)ccc1-c1cccc2ccccc12 [Example 57, 10-[3-Methoxy-4-(naphthalen-1-yl)benzoyl]-N-[2-(2-pyridinyl)ethyl]-10,11-dihydro-5H-pyrrolo[2,1-c][1,4]benzodiazepine-3-carboxamide] | 32 |  |
| COc1ccccc1-c1ccc(C(=O)N2Cc3ccc(C(=O)NCc4ccccn4)n3Cc3ccccc32)cc1 [Example 26, 10-[(2′-Methoxy-[1,1′-biphenyl]-4-yl)carbonyl]-N-(2-pyridinylmethyl)-10,11-dihydro-5H-pyrrolo[2,1-c][1,4]benzodiazepine-3-carboxamide] | 47 |  |
| COc1cc(C(=O)N2Cc3ccc(C(=O)N4CCN(c5ccncc5)CC4)n3Cc3ccccc32)ccc1-c1cccc2ccccc12 [Example 121, {10-[3-Methoxy-4-(naphthalen-1-yl)benzoyl]-10,11-dihydro-5H-pyrrolo[2,1-c][1,4]benzodiazepin-3-yl}[4-(4-pyridinyl)-1-piperazinyl]methanone] | 57 |  |
| O=C(NCc1ccccn1)c1ccc2n1Cc1ccccc1N(C(=O)c1ccc(-c3cccc4ccccc34)cc1Cl)C2 [Example 34, 10-[2-Chloro-4-(naphthalen-1-yl)benzoyl]-N-(2-pyridinylmethyl)-10,11-dihydro-5H-pyrrolo[2,1-c][1,4]benzodiazepine-3-carboxamide] | 5 |  |
| COc1ccccc1-c1ccc(C(=O)N2Cc3ccc(C(=O)N(C)CCc4ccncc4)n3Cc3ccccc32)cc1OC [Example 125, 10-[(2,2′-Dimethoxy-[1,1′-biphenyl]-4-yl)carbonyl]-N-methyl-N-[2-(4-pyridinyl)ethyl]-10,11-dihydro-5H-pyrrolo[2,1-c][1,4]benzodiazepine-3-carboxamide] | 94 |  |
| Cc1ccccc1-c1ccc(C(=O)N2Cc3ccc(C(=O)N4CCN(c5ccncc5)CC4)n3Cc3ccccc32)cc1C [Example 114, {10-[(2,2′-Dimethyl-[1,1′-biphenyl]-4-yl)carbonyl]-10,11-dihydro-5H-pyrrolo[2,1-c][1,4]benzodiazepin-3-yl}[4-(4-pyridinyl)-1-piperazinyl]methanone] | 94 |  |

The remaining lines, values ahead:

| inhibition at 0.1 µM [%] | OT % inhibition @ 100 nM [%] | Structure (SMILES) |
| --- | --- | --- |
| 50 |  | COc1cc(-c2ccccc2C)c(Cl)cc1C(=O)N1Cc2ccc(C(=O)NCCc3ccccn3)n2Cc2ccccc21 [Example 55, 10-[(6-Chloro-3-methoxy-2′-methyl-[1,1′-biphenyl]-4-yl)carbonyl]-N-[2-(2-pyridinyl)ethyl]-10,11-dihydro-5H-pyrrolo[2,1-c][1,4]benzodiazepine-3-carboxamide] |
| 87 |  | COc1cccc(-c2cc(OC)c(C(=O)N3Cc4ccc(C(=O)N(C)CCc5ccncc5)n4Cc4ccccc43)cc2Cl)c1 [Example 133, 10-[(6-Chloro-3,3′-dimethoxy-[1,1′-biphenyl]-4-yl)carbonyl]-N-methyl-N-[2-(4-pyridinyl)ethyl]-10,11-dihydro-5H-pyrrolo[2,1-c][1,4]benzodiazepine-3-carboxamide] |
|  | 30 | COc1cc(C(=O)N2Cc3ccc(C(=O)N4CCN(c5ccccn5)CC4)n3Cc3ccccc32)ccc1-c1cccc2ccccc12 [Example 83] |
| 31 |  | COc1cccc(-c2ccc(C(=O)N3Cc4ccc(C(=O)NCc5cccnc5)n4Cc4ccccc43)cc2OC)c1 [Example 46, 10-[(2,3′-Dimethoxy-[1,1′-biphenyl]-4-yl)carbonyl]-N-(3-pyridinylmethyl)-10,11-dihydro-5H-pyrrolo[2,1-c][1,4]benzodiazepine-3-carboxamide] |
| 95 |  | COc1cc(-c2ccccc2C)c(Cl)cc1C(=O)N1Cc2ccc(C(=O)N3CCCCC3c3cccnc3)n2Cc2ccccc21 (stereo not shown) [Example 140, {10-[(6-Chloro-3-methoxy-2′-methyl-[1,1′-biphenyl]-4-yl)carbonyl]-10,11-dihydro-5H-pyrrolo[2,1-c][1,4]benzodiazepin-3-yl}[2-(3-pyridinyl)-1-piperidinyl]methanone] |
| 57 |  | COc1cc(C(=O)N2Cc3ccc(C(=O)N(C)CCc4ccccn4)n3Cc3ccccc32)ccc1-n1c(C)ccc1C [Example 144, 10-[4-(2,5-Dimethyl-1H-pyrrol-1-yl)-3-methoxybenzoyl]-N-methyl-N-[2-(pyridin-2-yl)ethyl]-10,11-dihydro-5H-pyrrolo[2,1-c][1,4]benzodiazepine-3-carboxamide] |
| 99 |  | COc1cc(-c2ccccc2C)c(Cl)cc1C(=O)N1Cc2ccc(C(=O)N(C)CCc3ccncc3)n2Cc2ccccc21 [Example 132, 10-[(6-Chloro-3-methoxy-2′-methyl-[1,1′-biphenyl]-4-yl)carbonyl]-N-methyl-N-[2-(4-pyridinyl)ethyl]-10,11-dihydro-5H-pyrrolo[2,1-c][1,4]benzodiazepine-3-carboxamide] |
| 92 |  | COc1cc(-c2ccccc2C)c(Cl)cc1C(=O)N1Cc2ccc(C(=O)N(C)Cc3cccnc3)n2Cc2ccccc21 [Example 107, 10-[(6-Chloro-3-methoxy-2′-methyl-[1,1′-biphenyl]-4-yl)carbonyl]-N-methyl-N-(3-pyridinylmethyl)-10,11-dihydro-5H-pyrrolo[2,1-c][1,4]benzodiazepine-3-carboxamide] |
| 6 |  | Cc1ccccc1-c1ccc(C(=O)N2Cc3ccc(C(=O)NCCc4ccccn4)n3Cc3ccccc32)cc1 [Example 53, 10-[(2′-Methyl-[1,1′-biphenyl]-4-yl)carbonyl]-N-[2-(2-pyridinyl)ethyl]-10,11-dihydro-5H-pyrrolo[2,1-c][1,4]benzodiazepine-3-carboxamide] |
